Test system: TNFα
Test: IRAK4 Monocyte TNFα Cell Based Assay
Set-up: species or system human
Conditions: human monocytes; second part of Table 2, compounds 33-343; unit inferred; read-out: EC50 MONO TNF HTRF
How it was run: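 TNFα release quantified by HTRF (cryptate/XL665 antibody pair, overnight at RT) after 1 h compound pre-incubation (0.1% DMSO) and 4 h LPS challenge at 50 pg/ml, 37 °C, 5,000 monocytes per well. Signal ratio normalised between unstimulated (0%) and stimulated (100%) controls.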

Structure (SMILES) | EC50 [nM]
CC(=O)N[C@@H]1[C@@H]2CC[C@H]1CN(c1nnc(-c3cnc(-c4ccc5cc(C#N)cnn45)cc3NC3CCOCC3)s1)C2 [Example 171, N-((1R,5S,8s)-3-(5-(6-(3-cyanopyrrolo[1,2-b]pyridazin-7-yl)-4-((tetrahydro-2H-pyran-4-yl)amino)pyridin-3-yl)-1,3,4-thiadiazol-2-yl)-3-azabicyclo[3.2.1]octan-8-yl)acetamide] | 2.1
CC(C)Nc1cc(-c2ccc3cc(C#N)cnn23)ncc1-c1nnc(N2CCC(O)(C(F)(F)F)CC2)s1 [Example 172, 7-(5-(5-(4-hydroxy-4-(trifluoromethyl)piperidin-l-yl)-1,3,4-thiadiazol-2-yl)-4-(isopropylamino)pyridin-2-yl)pyrrolo[1,2-b]pyridazine-3-carbonitrile] | 34.4
CC(=O)N[C@@H]1[C@@H]2C[C@H]1CN(c1nnc(-c3cnc(-c4ccc5cc(C#N)cnn45)cc3NC(C)C)s1)C2 [Example 173, N-((1R,5S,6s)-3-(5-(6-(3-cyanopyrrolo[1,2-b]pyridazin-7-yl)-4-(isopropylamino)pyridin-3-yl)-1,3,4-thiadiazol-2-yl)-3-azabicyclo[3.1.1]heptan-6-yl)acetamide] | 11.6
CC(=O)N[C@@H]1[C@@H]2C[C@H]1CN(c1nnc(-c3cnc(-c4ccc5cc(C#N)cnn45)cc3N[C@H](C)C#N)s1)C2 [Example 174, N-((1R,5S,6S)-3-(5-(4-(((R)-1-cyanoethyl)amino)-6-(3-cyanopyrrolo[1,2-b]pyridazin-7-yl)pyridin-3-yl)-1,3,4-thiadiazol-2-yl)-3-azabicyclo[3.1.1]heptan-6-yl)acetamide] | 3.5
CC(=O)N[C@@H]1[C@@H]2C[C@H]1CN(c1nnc(-c3cnc(-c4ccc5cc(C#N)cnn45)cc3NC3(C)COC3)s1)C2 [Example 175, N-((1R,5S,6s)-3-(5-(6-(3-cyanopyrrolo[1,2-b]pyridazin-7-yl)-4-((3-methyloxetan-3-yl)amino)pyridin-3-yl)-1,3,4-thiadiazol-2-yl)-3-azabicyclo[3.1.1]heptan-6-yl)acetamide] | 9
CNc1cc(-c2ccc3cc(C#N)cnn23)ncc1-c1nnc(N2C[C@H]3C[C@@H](C2)[C@@H]3NC(C)=O)s1 [Example 176, N-((1R,5S,6s)-3-(5-(6-(3-cyanopyrrolo[1,2-b]pyridazin-7-yl)-4-(methylamino)pyridin-3-yl)-1,3,4-thiadiazol-2-yl)-3-azabicyclo[3.1.1]heptan-6-yl)acetamide] | 23.5
CC(=O)N[C@@H]1[C@@H]2C[C@H]1CN(c1nnc(-c3cnc(-c4ccc5cc(C#N)cnn45)cc3NC3COC3)s1)C2 [Example 179, N-((1R,5S,6s)-3-(5-(6-(3-cyanopyrrolo[1,2-b]pyridazin-7-yl)-4-(oxetan-3-ylamino)pyridin-3-yl)-1,3,4-thiadiazol-2-yl)-3-azabicyclo[3.1.1]heptan-6-yl)acetamide] | 6.4
C[C@H](C#N)Nc1cc(-c2ccc3cc(C#N)cnn23)ncc1-c1nnc(N2CCC(C)(O)CC2)s1 [Example 180] | 6.8
CC1(O)CCN(c2nnc(-c3cnc(-c4ccc5cc(C#N)cnn45)cc3NC3(C)COC3)s2)CC1 [Example 181, 7-(5-(5-(4-hydroxy-4-methylpiperidin-l-yl)-1,3,4-thiadiazol-2-yl)-4-((3-methyloxetan-3-yl)amino)pyridin-2-yl)pyrrolo[1,2-b]pyridazine-3-carbonitrile] | 18.4
CC(=O)N[C@H]1[C@@H]2COC[C@H]1CN(c1nnc(-c3cnc(-c4ccc5cc(C#N)cnn45)cc3NC(C)C)s1)C2 [Example 182, N-((1R,5S,9r)-7-(5-(6-(3-cyanopyrrolo[1,2-b]pyridazin-7-yl)-4-(isopropylamino)pyridin-3-yl)-1,3,4-thiadiazol-2-yl)-3-oxa-7-azabicyclo[3.3.1]nonan-9-yl)acetamide] | 37.8
CC(=O)N[C@@H]1[C@@H]2CC[C@H]1CN(c1nnc(-c3cnc(-c4ccc5cc(C#N)cnn45)cc3NC3COC3)s1)C2 [Example 184] | 2.4
CC(C)Nc1cc(-c2ccc3cc(C#N)cnn23)ncc1-c1nnc(N2CC[C@@](C)(O)[C@@H](F)C2)s1 [Example 186, 7-(5-(5-((3S,4R)-3-fluoro-4-hydroxy-4-methylpiperidin-l-yl)-1,3,4-thiadiazol-2-yl)-4-(isopropylamino)pyridin-2-yl)pyrrolo[1,2-b]pyridazine-3-carbonitrile] | 8.4
CC(C)Nc1cc(-c2ccc3cc(C#N)cnn23)ncc1-c1nnc(N2CCC(O)(CF)CC2)s1 [Example 189] | 16.3
CC(C)Nc1cc(-c2ccc3cc(C#N)cnn23)ncc1-c1nnc([C@H]2C[C@@](C)(O)C2)s1 [Example 199, 7-(5-(5-((1s,3s)-3-hydroxy-3-methylcyclobutyl)-1,3,4-thiadiazol-2-yl)-4-(isopropylamino)pyridin-2-yl)pyrrolo[1,2-b]pyridazine-3-carbonitrile] | 38.3
CC(=O)N[C@H]1C[C@H](c2nnc(-c3cnc(-c4ccc5cc(C#N)cnn45)cc3NC3CCOCC3)s2)C1 [Example 201] | 34.9
CC(=O)N[C@H]1C[C@H](c2nnc(-c3cnc(-c4ccc5cc(C#N)cnn45)cc3NC3COC3)s2)C1 [Example 202] | 166
CC(=O)N[C@@H]1C[C@H]2COC[C@@H](C1)N2c1nnc(-c2cnc(-c3ccc4cc(C#N)cnn34)cc2NC(C)C)s1 [Example 209, N-((1R,5S,7r)-9-(5-(6-(3-cyanopyrrolo[1,2-b]pyridazin-7-yl)-4-(isopropylamino)pyridin-3-yl)-1,3,4-thiadiazol-2-yl)-3-oxa-9-azabicyclo[3.3.1]nonan-7-yl)acetamide] | 9.6
CC1(Nc2cc(-c3ccc4cc(C#N)cnn34)ncc2-c2nnc(N3C[C@H]4CC[C@@H](C3)[C@@H]4NC(=O)C(C)(C)O)s2)COC1 [Example 210, N-((1R,5S,8s)-3-(5-(6-(3-cyanopyrrolo[1,2-b]pyridazin-7-yl)-4-((3-methyloxetan-3-yl)amino)pyridin-3-yl)-1,3,4-thiadiazol-2-yl)-3-azabicyclo[3.2.1]octan-8-yl)-2-hydroxy-2-methylpropanamide] | 2.8
CC(C)Nc1cc(-c2ccc3cc(C#N)cnn23)ncc1-c1nnc(C(=O)N[C@H]2C[C@H](O)C2)s1 [Example 213, 5-(6-(3-cyanopyrrolo[1,2-b]pyridazin-7-yl)-4-(isopropylamino)pyridin-3-yl)-N-((1r,3r)-3-hydroxycyclobutyl)-1,3,4-thiadiazole-2-carboxamide] | 1830
CC(C)Nc1cc(-c2ccc3cc(C#N)cnn23)ncc1-c1nnc(C(=O)N[C@H]2C[C@@H](O)C2)s1 [Example 215, 5-(6-(3-cyanopyrrolo[1,2-b]pyridazin-7-yl)-4-(isopropylamino)pyridin-3-yl)-N-((1s,3s)-3-hydroxycyclobutyl)-1,3,4-thiadiazole-2-carboxamide] | 3100
CC(C)Nc1cc(-c2ccc3cc(C#N)cnn23)ncc1-c1nnc(C(=O)N2CC[C@@H](CO)C2)s1 [Example 216] | 18.1
CC(C)Nc1cc(-c2ccc3cc(C#N)cnn23)ncc1-c1nnc(C(=O)N2CCC[C@H]2CO)s1 [Example 217] | 11.1
CC(C)Nc1cc(-c2ccc3cc(C#N)cnn23)ncc1-c1nnc(C(=O)N[C@H]2C[C@@](C)(O)C2)s1 [Example 218, 5-(6-(3-cyanopyrrolo[1,2-b]pyridazin-7-yl)-4-(isopropylamino)pyridin-3-yl)-N-((1s,3s)-3-hydroxy-3-methylcyclobutyl)-1,3,4-thiadiazole-2-carboxamide] | 858
CC(C)Nc1cc(-c2ccc3cc(C#N)cnn23)ncc1-c1nnc(C(=O)N[C@H]2C[C@](C)(O)C2)s1 [Example 219] | 2070
CC(C)Nc1cc(-c2ccc3cc(C#N)cnn23)ncc1-c1nnc(C(=O)N[C@H]2CC[C@H](O)CC2)s1 [Example 220, 5-(6-(3-cyanopyrrolo[1,2-b]pyridazin-7-yl)-4-(isopropylamino)pyridin-3-yl)-N-((1r,4r)-4-hydroxycyclohexyl)-1,3,4-thiadiazole-2-carboxamide] | 131
CC(C)Nc1cc(-c2ccc3cc(C#N)cnn23)ncc1-c1nnc(C(=O)N[C@H]2CC[C@@H](O)CC2)s1 [Example 224, 5-(6-(3-cyanopyrrolo[1,2-b]pyridazin-7-yl)-4-(isopropylamino)pyridin-3-yl)-N-((1s,4s)-4-hydroxycyclohexyl)-1,3,4-thiadiazole-2-carboxamide] | 4770
CC(=O)NC1CCC(c2nnc(-c3cnc(-c4ccc5cc(C#N)cnn45)cc3NC3CCC(c4cnn(C(F)F)c4)CC3)s2)CC1 [Example 227, N-((1R,4r)-4-(5-(6-(3-cyanopyrrolo[1,2-b]pyridazin-7-yl)-4-(((1r,4R)-4-(1-(difluoromethyl)-1H-pyrazol-4-yl)cyclohexyl)amino)pyridin-3-yl)-1,3,4-thiadiazol-2-yl)cyclohexyl)acetamide] | 14.4
CNc1cc(-c2ccc3cc(C#N)cnn23)ncc1-c1nnc([C@H]2C[C@H](NC(C)=O)C2)s1 [Example 282, N-((1r,3r)-3-(5-(6-(3-cyanopyrrolo[1,2-b]pyridazin-7-yl)-4-(methylamino)pyridin-3-yl)-1,3,4-thiadiazol-2-yl)cyclobutyl)acetamide] | 22.4
CC(=O)NC1CC2CC1CC2c1nnc(-c2cnc(-c3ccc4cc(C#N)cnn34)cc2NC(C)C)s1 (stereo not drawn) [Example 285, N-(5-(5-(6-(3-cyanopyrrolo[1,2-b]pyridazin-7-yl)-4-(isopropylamino)pyridin-3-yl)-1,3,4-thiadiazol-2-y)bicyclo[2.2.1]heptan-2-yl)acetamide] | 68
CC(C)Nc1cc(-c2ccc3cc(C#N)cnn23)ncc1-c1nnc(N2CCC(C)(O)CC2)s1 [Example 287, 7-(5-(5-(4-hydroxy-4-methylpiperidin-l-yl)-1,3,4-thiadiazol-2-yl)-4-(isopropylamino)pyridin-2-yl)pyrrolo[1,2-b]pyridazine-3-carbonitrile] | 9.8

Source: patent US11046686B2, “Thiadiazole IRAK4 compounds” (Gilead Sciences, Inc., priority 2018, dated 2021)
